# Measurements as given in patent US9676793B2, “Co-crystals of 5-amino-2-oxothiazolo[4,5-d]pyrimidin-3(2H)-yl-5-hydroxymethyl tetrahydrofuran-3-yl acetate and methods for preparing and using the same” (Hoffmann-La Roche Inc., priority 2014, dated 2017).
# Read-outs that look alike come from different tables or passages of the source. Marks after values point to notes of the source that are not given here.
# Experiments:
# [1] = BCS classification of co-crystals (aqueous solubility); type: physicochemical; conditions: for BCS Class (Stahl et al): Table 10
# [2] = Hygroscopicity of co-crystals; type: physicochemical
# [3] = Pharmacokinetic study after oral administration; type: in vivo, cynomolgus monkeys
# Description: Studies were undertaken to compare the pharmacokinetics (PK) of the glutaric acid co-crystal to the PK of the tosylate salt of the Formula I compound. A 3% solution of Blanose 7LF PM without preservatives was used to formulate the glutaric acid co-crystal and tosylate salt. Results from a pharmacokinetic study in cynomolgus monkeys indicate that the plasma concentration of the glutaric acid co-crystal was greater than the corresponding tosylate salt following oral administration of each compound.
# In this study, each compound was administered orally at a dose of 10 mg/kg to cynomolgus monkeys. Following administration, blood was obtained from each test subject at 0 min, 60 min, 120 min and 180 minutes. After separating the plasma from whole blood an aliquot to each plasma sample was denature by the addition of 70% ethanol. The denatured protein was pelleted by centrifugation and the supernatant was collected and dried using a stream of dry nitrogen gas. The pellet thus obtained was re-constituted in water containing 0.1% formic acid and the re-constituted mixture was analyzed by UPLC using a HSS-T3 (high strength silica) column or an YMC TriartC-18 column. Gradient elution using a mixture of water containing 0.1% HCOOH (mobile phase-A) and acetonitrile containing 0.1% HCOOH (mobile phase-B) was employed for analysis of the pharmacokinetic (PK) samples.
# [4] = Solid state stability by UPLC; type: physicochemical
# Experimental: Solid state stability studies were performed by storing a test sample of the co-crystal at different temperatures and under conditions of different relative humidity for a period of one to three months. Stability was judged by Ultra performance liquid chromatography (UPLC) analysis of the test co-crystals. Percent degradation of API in a test sample of the co-crystal was calculated as follows: Co-crystals in accordance with the invention are fairly stable across the temperature range used in the study. […] Without ascribing to a particular theory, crystallinity may contribute to the stability of inventive co-crystals. Table 7 illustrates data from a stability of a Formula I glutaric acid co-crystal in accordance with the invention across a range of temperatures and in the presence of 75% relative humidity at 40° C. […] Further supporting the hypothesis that crystallinity contributes to increased stability was provided by comparing the amorphous form of the free base of a Formula I compound to the crystalline form of a Formula I compound as illustrated in Table 8.
# [5] = Excipient compatibility assay (COMPASS), ternary mixtures; type: physicochemical; conditions: glutaric acid co-crystal ternary mixtures
# Experimental: Compatibility of the inventive co-crystals with pharmaceutically acceptable excipients was determined by the classic compatibility assay (COMPASS). According to this method, excipient compatibility was investigated by physically mixing the inventive glutaric acid co-crystals with a single pharmaceutical excipient so as to form a binary mixture or by physically mixing the inventive glutaric acid co-crystals with mixtures containing two or more excipients (ternary mixture). Each binary mixture contained 5% by weight of the Formula I compound, whereas the weight percent of the Formula I compound in a ternary mixture was 50%. The test mixtures were stored at 50° C. for 4 weeks or at a temperature of 40° C. and a relative humidity of 75% for 4 weeks.
# The inventive co-crystals are compatible with fillers and/or excipients commonly used in the manufacture of pharmaceutical compositions. Table 4 illustrates the results of a compatibility study using ternary mixtures of the inventive glutaric acid co-crystal of the Formula I compound. Table 5 illustrates the results for a similar study using ternary mixtures of the tosylate salt of the Formula I compound.
# Ternary mixtures comprising the inventive glutaric acid co-crystal or the tosylate salt of a Formula I compound contained the following excipients in proportions illustrated in Table 6 below.
# HBV = test: microbe, parasite or virus in culture
# Experimental: Direct inhibition of viral replication was evaluated by monitoring the levels of secreted HBV DNA and the levels of HBV surface antigen (HBsAg) in cultures containing HBV infected HepaRG cells.
# After three days incubation, the combined medium was replaced with differentiation medium and the cells were maintained in the differentiation medium for an additional 2 to 4 weeks. The differentiation medium was renewed every 2 to 3 days throughout the incubation period. Differentiated HepaRG cells (HepaRGd) display hepatocyte-like cell islands surrounded by monolayer of biliary-like cells. Prior to HBV infection and compound treatment, HepaRGd cells were seeded into collagen I coated 96-well plates (Gibco, Cat# A11428-03) at 50,000 to 60,000 cells per well. Cells were allowed to recover their differentiated phenotype in 96-well plates for at least 1 week after plating prior to HBV infection.
# HBV inoculum was collected from HepG2.2.15 cultured cells, a cell line that supports HBV (genotype D, strain ayw) replication and virion secretion as disclosed in Sells M A., et al., PNAS, 84(4): 1005-1009. HepG2.2.15 cells were maintained in DMEM+GlutaMAX-I (Invitrogen) containing 1× Pen/Strep (Invitrogen), 10% FBS, and 0.25 mg/ml G-418 (Invitrogen) using hyperflasks (Corning) pre-coated with collagen I (BD Biosciences). Upon reaching confluency, HepG2.2.15 culture media was replaced with DMEM+GlutaMAX-I containing 1× Pen-Strep, 2.5% FBS, and 1% DMSO for 3 days and then replaced with DMEM+GlutaMAX-I containing 1× Pen-Strep and 1% DMSO. The 1% DMSO containing media was collected every 3 to 4 days over a two week period and HBV infectious virions and subviral particles were pelleted by ultracentrifugation through a 20% sucrose cushion in a Ti 45 Beckman rotor at 45,000 rpm for 3 hours at 4° C. The pellets were resuspended in WEM at a concentration of 10^8-10^9 genome equivalents (GE) per ml, determined by real time PCR as described below using a genotype D HBV containing plasmid DNA as an internal standard. To evaluate the infectivity of the inoculum, HepaRGd cells in 96-well plates were infected in differentiation medium containing 50 to 200 GE/cell and 4% PEG 8000 (PolyEthylene Glycol 8000, Sigma, Cat# P5413-500G) for 16 hr at 37° C. At the end of the infection, HBV inoculum was removed and cells were washed 3 times with differentiation medium. Differentiation medium was replenished every 2 to 3 days and HBV replication was monitored by measuring secreted HBV DNA, hepatitis B surface (HBsAg) and/or e (HBeAg) antigens.
# HBsAg was detected from 50 μL of HBV infected HepaRG supernatants using the HBsAg chemiluminescence immunoassay (CLIA) kit following instructions as recommended by the manufacturer (Autobio Diagnostics Co., Zhengzhou, China). HBV DNA was extracted from 50 μL of HBV infected HepaRGd supernatants using the MagNA Pure 96 DNA and Viral NA Small Volume Kit (Roche, Cat#05 467 497 001). […] All PCR reactions were performed using the ViiA7 Real Time PCR system (Life Technologies).
# Both direct and indirect inhibitory activity of HBV replication was measured. […] Aliquots of these reagents were added to independent wells of a 96-well culture plate containing HBV infected HepaRGd cells on day 4 post infection. The final concentration of DMSO in each well was 2%. The HepaRGd cells used in the inhibition study were maintained in differentiation media containing 2% DMSO.
# [6] = Solubility and solution stability in buffers by UPLC; type: physicochemical; conditions: thermodynamic from solid, read-out: solubility: free-base form of the Formula I compound present per milliliter of buffer solution
# Description: Studies have shown that the co-crystals were soluble in water and buffered solvents.
# Unlike the tosylate salt, no genotoxic by-products are formed in solutions of the inventive co-crystals.
# [7] = system: HBV infected HepaRGd cells; test: Cell viability by CellTiter-Glo, direct treatment; type: cell-based
# [8] = 4 weeks/40° C./ambient conditions (closed container)
# [9] = solid, 1 month, 40° C./75% r.h.
# [10] = solid, 2 months, 40° C./75% r.h.
# [11] = read-out: EC50 against HBV DNA secretion, HBV infected HepaRG cell assay
molecule,measurement,setting,value
"5-amino-3-(2′-O-acetyl-3′-deoxy-β-D-ribofuranosyl)-3H-thiazolo[4,5]pyrimidine-2-one [glutaric acid co-crystal]",BCS Class,[1]; Table 1,1
same,BCS Class (Stahl et al),[1],1
same,Hygroscopicity,[2]; grade in words,slightly
same,Hygroscopicity,[2]; mass change ±,(±0.3%-m/m)
Nc1ccccc1C(=O)O [2-aminobenzoic acid],Hygroscopicity,[2]; grade in words,slightly
same,Hygroscopicity,[2]; mass change ±,(±1.8%-m/m)
"CC(=O)OC1CC(CO)OC1n1c(=O)sc2cnc(N)nc21.Cc1ccc(S(=O)(=O)O)cc1 (stereo not shown) [Tosylate Salt, 5-amino-2-oxothiazolo[4,5-d]pyrimidin-3(2H)-yl-5-hydroxymethyl tetrahydrofuran-3-yl acetate]",levels of the de-acetylated form of the Formula I compound and biologically active species in plasma,"[3]; monkeys, oral dose of 10 mg/kg, compared with glutaric acid co-crystal",lower levels
"CC(=O)O[C@@H]1C[C@@H](CO)O[C@H]1n1c(=O)sc2cnc(N)nc21 [free base Formula I-amorphous, 5-amino-2-oxothiazolo[4,5-d]pyrimidin-3(2H)-yl-5-hydroxymethyl tetrahydrofuran-3-yl acetate]",% Area Formula I,[4]; 4 weeks/40° C./75% r.h.,86.34 % Area
same,% degradation,[4]; 4 weeks/40° C./75% r.h.,13.57%
same,stability grade,[4]; 4 weeks/40° C./75% r.h.,very
same,% Area Formula I,[4]; [8],98.89 % Area
same,% degradation,[4]; [8],1.011%
same,stability grade,[4]; [8],(moderately
same,T0 % Area Formula I,"[4]; free base forms, T0",99.90 % Area
"CC(=O)O[C@@H]1C[C@@H](CO)O[C@H]1n1c(=O)sc2cnc(N)nc21 [free base Formula I-crystalline, 5-amino-2-oxothiazolo[4,5-d]pyrimidin-3(2H)-yl-5-hydroxymethyl tetrahydrofuran-3-yl acetate]",% Area Formula I,[4]; 4 weeks/40° C./75% r.h.,99.56 % Area
same,% degradation,[4]; 4 weeks/40° C./75% r.h.,0.15%
same,stability grade,[4]; 4 weeks/40° C./75% r.h.,stable
same,% Area Formula I,[4]; [8],99.52 % Area
same,% degradation,[4]; [8],0.19%
same,stability grade,[4]; [8],(stable)
same,T0 % Area Formula I,"[4]; free base forms, T0",99.71 % Area
same,% Area Formula I,[5]; 4 weeks at 40° C./75% RH,99.740 % area
same,% degradation,[5]; 4 weeks at 40° C./75% RH,−0.030%
same,Stability,[5]; 4 weeks at 40° C./75% RH,Fairly
same,% Area Formula I,[5]; 4 weeks at 50° C.,99.670 % area
same,% degradation,[5]; 4 weeks at 50° C.,0.040%
same,Stability,[5]; 4 weeks at 50° C.,Fairly
same,% Area Formula I,[5]; Reference 4 weeks at 2-8° C.,99.710 % area
"CC(=O)O[C@@H]1C[C@@H](CO)O[C@H]1n1c(=O)sc2cnc(N)nc21 [glutaric acid co-crystal, 5-amino-3-(2′-O-acetyl-3′-deoxy-β-D-ribofuranosyl)-3H-thiazolo[4,5]pyrimidine-2-one]",direct inhibition of HBV viral replication,HBV; cultured HepaRG cells,did not inhibit viral replication
same,solubility,"[6]; aqueous buffer, pH 4.0 buffer",~8 mg/mL
same,solubility,"[6]; buffer solution, aqueous buffer, pH 7.0 buffered solution",~22 mg/mL
same,solubility,"[6]; buffer solution, simulated gastric fluid, pH 1.0 buffered solution",> 60 mg/mL
same,plasma concentration of the de-acetylated form of the Formula I compound compared to tosylate salt,"[3]; cynomolgus monkeys, oral, 10 mg/kg",about two-fold
same,% Area Formula I,"[4]; solid, 1 month, 2-8° C.",99.02 % Area
same,% degradation,"[4]; solid, 1 month, 2-8° C.",−0.08%
same,% Area Formula I,"[4]; solid, 1 month, 40° C.",99.05 % Area
same,% degradation,"[4]; solid, 1 month, 40° C.",−0.11%
same,% Area Formula I,[4]; [9],99.14 % Area
same,% degradation,[4]; [9],−0.2%
same,% Area Formula I,"[4]; solid, 1 month, 60° C.",99.01 % Area
same,% degradation,"[4]; solid, 1 month, 60° C.",−0.07%
same,% Area Formula I,"[4]; solid, 1 month, RT",98.9 % Area
same,% degradation,"[4]; solid, 1 month, RT",0.04%
same,% Area Formula I,"[4]; solid, 2 months, 2-8° C., reference for 2 month stability",99.32** % Area
same,% Area Formula I,"[4]; solid, 2 months, 40° C.",99.35 % Area
same,% degradation,"[4]; solid, 2 months, 40° C.",−0.04%
same,% Area Formula I,[4]; [10],99.34 % Area
same,% degradation,[4]; [10],−0.03%
same,% Area Formula I,"[4]; solid, 2 months, 60° C.",99.56 % Area
same,% degradation,"[4]; solid, 2 months, 60° C.",−0.25%
same,% Area Formula I,"[4]; solid, 2 months, RT",99.22 % Area
same,% degradation,"[4]; solid, 2 months, RT",−0.10%
same,T0 % Area Formula I,"[4]; solid, T0, reference for 1 month stability",98.94* % Area
O=C(O)CCC(=O)C(=O)O [α-ketoglutaric acid],BCS Class (Stahl et al),[1],1
same,Hygroscopicity,[2]; grade in words,slightly
same,Hygroscopicity,[2]; mass change ±,(±0.8%-m/m)
Fumaric acid,Hygroscopicity,[2]; grade in words,slightly
same,Hygroscopicity,[2]; mass change ±,(±0.6%-m/m)
"IL-6: interleukin 6, cytokine",EC50,HBV; [11],0.027 ± 0.0073 nM
same,EC50,"HBV; read-out: EC50 against secretion of HBsAg, HBV infected HepaRG cell assay",0.26 ± 0.02 nM
"IP-10: IFNγ-induced protein 10, chemokine",EC50,"HBV; read-out: EC50, HBV replication inhibitory effect, highest concentration tested",> 115 nM
same,CC50,[7],> 115 nM
TNF-α,EC50,HBV; [11],0.085 ± 0.046 nM
same,EC50,"HBV; read-out: EC50 against HBsAg secretion, HBV infected HepaRG cell assay, unit inferred",0.32 nM
